The results in this text go back to patent publication US8436049B2, “Uses of pentamidine and related compounds” (State of Oregon Acting By and Through the State Board of …, priority 2008, dated 2013).

SMILES strings stand for the structures. Starred links: 1 amine or outer side, 2 acyl side, 3 side chain; linkers in the order of their positions; H or OH if unused. Positions of bridges follow the written chain, without caps; N, C: chain ends. Non-standard residues stand in square brackets, D forms with d. Residues, ends and D or L forms follow the SMILES beside them. Chains are numbered I, II in the order given. Actinocin(9to1) = Cc1c2oc3c(C)ccc(C(=O)[*:1])c3nc-2c(C(=O)[*:2])c(N)c1=O; NMeV = CN[C@H](C(=O)O)C(C)C; Sar = CNCC(=O)O

In one assay the target is T1, MBNL-CUG RNA complex (Homo sapiens, UniProt Q9NR56).
T1 construct: Both the full length MBNL and MBNL (1-260) constructs were cloned using BamHI and NotI restriction sites; GST (N, cleaved yes); made in house; host or cells: E. coli BL21-Star
T1 sequence (Q9NR56 1-382 isoform Q9NR56-5): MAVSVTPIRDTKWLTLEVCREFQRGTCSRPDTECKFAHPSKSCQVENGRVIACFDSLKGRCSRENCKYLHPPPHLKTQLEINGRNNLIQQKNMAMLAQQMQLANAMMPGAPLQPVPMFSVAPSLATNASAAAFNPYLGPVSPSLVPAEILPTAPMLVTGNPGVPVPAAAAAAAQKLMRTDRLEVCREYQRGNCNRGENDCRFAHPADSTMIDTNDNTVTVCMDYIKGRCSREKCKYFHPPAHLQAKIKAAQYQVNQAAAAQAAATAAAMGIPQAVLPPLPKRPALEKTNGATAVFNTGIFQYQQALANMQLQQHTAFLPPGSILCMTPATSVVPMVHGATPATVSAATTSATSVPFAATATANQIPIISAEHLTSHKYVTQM
In words: Gel shift assay, disruption of MBNL binding to short CUG repeat RNA. Particulars: for Disruption of the MBNL-CUG interaction: gel shift screen, increasing amounts of small molecule. The protocol:
MBNL1 (MBNL) was PCR amplified and was cloned into GST fusion vector pGEX-6P-1 (GE Healthcare, Piscataway, N.J.), using DNA encoding a MBNL isoform with amino acids 1-382). Both the full length MBNL and MBNL (1-260) constructs were cloned using BamHI and NotI restriction sites. Using BL21-Star expression cells (Invitrogen, Carlsbad, Calif.), protein expression was induced with 0.25 mM IPTG at an OD600 of about 0.5-1, for 3-4 hours at 37° C. Cells were lysed in 30 ml of buffer (500 mM NaCl, 25 mM Tris pH 7.5, 10 mM β-mercaptoethanol (BME) and 5% glycerol) using 1 mg/ml of lysozyme, followed by sonication (3×30 seconds). Cell extract was centrifuged for 15 minutes at 17,000 rpm, and lysate which contained GST-MBNL was collected. GST-MBNL was bound to GST affinity beads for 30 minutes at 4° C. […] The protein was then run over an anion exchange (Q) column. […] MBNL was collected in the column flow through, concentrated and dialyzed into storage buffer (30% glycerol, 300 mM NaCl, 20 mM Tris pH 7.5, 5 mM BME) and stored at −80° C. Aliquots were removed from −80° C. and temporarily placed at −20° C. until used for an experiment.
All RNA substrates that were radiolabeled were ordered from IDT DNA (Coralville, Iowa), and 5′ end-labeled using [γ-^32P]ATP. All radiolabeled RNAs were purified on 8% polyacrylamide denaturing gels.
Solutions for the protein-RNA binding experiments contained 125 mM NaCl, 5 mM MgCl2, 20 mM Tris (pH 7.5), 7.5% glycerol, 2 mg/ml bovine serum albumin, and 0.1 mg/ml heparin. Prior to incubation, RNA substrates were annealed by incubation at 95° C. for 2 minutes and then placed directly on ice for 20 minutes in 66 mM NaCl, 6.7 mM MgCl2, and 27 mM Tris (pH 7.5). Protein was then added to the RNA in the presence or absence of the small molecule. The binding reaction was carried out in a 10 μL volume and was incubated for 10 minutes at room temperature before 2-4 μL were loaded on a pre-chilled 4° C. gel. RNA and RNA-protein complexes were separated on 3% acrylamide (37.5:1), 0.3% agarose (low melting point), 0.5× Tris-Borate (TB) gels, run for approximately 2-3 hours at 4° C. at 25-50 volts. Gels were dried and autoradiographed. For the neomycin B and CUG8 gel shift, an 8% acrylamide (29:1), 0.5×TB gel was used and run for 3 hours at 4° C. at 175 volts. All small molecules were dissolved in either water or ethanol, according to the manufacturer's guidance for solubility.
For binding curves, gels were quantified using ImageQuant® software (Molecular Dynamics, Piscataway, N.J.). The percent RNA bound was determined by taking the ratio of RNA-protein complex to total RNA, per lane. Any counts in the well were discarded as it was unapparent if the RNA was bound by protein, small molecule or was in an aggregate. Binding curves were graphed using KaleidaGraph software (Synergy Software, Reading, Pa.). For the neomycin B and CUG8 gel shift, the apparent Kd was determined using Equation 1, where Y=fraction bound, m0=small molecule concentration, m1=total RNA concentration, and m2=Kd.
For determining the EC50, Equation 3 was used, where m0=small molecule concentration, m1=EC50, m2=Hill coefficient, and m3=fraction MBNL bound without small molecule present. Y=m3/[1+(m0/m1)^m2] Equation 3 Results
Background: A gel shift assay detects complexes by their altered migration in electrophoresis.

The test system of assay [1] is cTNT splicing reporter in HeLa cells. The experiment in a line: cTNT splicing reporter (exon 5 inclusion) in HeLa cells with or without CUG960 plasmid. Particulars: presence of the CUG960 construct. Format: cell-based. The method, then:
HeLa cells were grown in monolayers in DMEM with GlutaMAX™ (Gibco, Carlsbad, Calif.) and supplemented with 10% fetal bovine serum. Approximately 2.0 (±0.2)×10^5 cells were plated in 6 well plates and transfected 18-20 hours later at 70-90% confluency. 1 μg of plasmid was transfected into each well of cells, using 5 μL of […] (Invitrogen) according to the manufacturer's protocols. For co-transfection, 1 μg of total plasmid was transfected, at 500 ng of each construct. Test compounds were added 4 hours after transfection, when the media was changed. Cells were harvested 18-22 hours after transfection using TrypLE™ reagent (Gibco).
Immediately following harvesting, RNA was isolated from the cell pellets using an RNeasy® kit (Qiagen, Valencia, Calif.). 500 ng of isolated RNA was DNased with RQI DNase (Promega, Madison, Wis.) according to manufacture's protocol. 100 ng of DNAsed RNA was reverse transcribed with Superscript® II (Invitrogen, Carlsbad, Calif.) and a cTNT-specific reverse primer according to manufacturer's protocols. 30 ng of the reverse transcription reaction was subjected to 22-25 rounds of PCR amplification using cTNT specific primers spiked with a forward primer 5′ end-labeled with [γ-^32P]ATP. Similar methods were used to reverse transcribe and amplify IR and PLEKHH2. […] The resulting PCR products were run on a 6% (19:1) polyacrylamide denaturing gel. The gel was subsequently autoradiographed and quantitation of the radioactive bands was performed using ImageQuant® software.
The following primer pairs were used. For the cTNT minigene, the forward primer was […] (SEQ ID NO: 1), and the reverse primer was […] (SEQ ID NO: 2). For the IR minigene, the forward primer was […] (SEQ ID NO: 3), and the reverse primer was […] (SEQ ID NO: 4). The underlined sections are for cloning purposes. For the PLEKHH2 minigene, the forward primer was […] (SEQ ID NO: 5), and the reverse primer was […] (SEQ ID NO: 6).
The ability of pentamidine to alter the splicing defects observed in a cell-based model for DM was tested. This was accomplished in a system using cells transformed with a plasmid expressing 960 CUG repeats where the expression of these CUG repeats causes splicing defects similar to those observed in DM cells and DM subjects (Savkur et al., Nature Genet. 29:40-47, 2001).

The target in another assay is T2, MBNL-cTNT interaction (Homo sapiens, UniProt Q9NR56).
T2 construct: Both the full length MBNL and MBNL (1-260) constructs were cloned using BamHI and NotI restriction sites; GST (N, cleaved yes); made in house; host or cells: E. coli BL21-Star
T2 sequence (Q9NR56 1-382 isoform Q9NR56-5): T1 sequence (Q9NR56 1-382 isoform Q9NR56-5)
In words: Gel shift assay, disruption of MBNL binding to cTNT pre-mRNA site. The settings on record: read-out: EC50 for disruption of MBNL binding to cTNT target construct. The protocol: Solutions for the protein-RNA binding experiments contained 125 mM NaCl, 5 mM MgCl2, 20 mM Tris (pH 7.5), 7.5% glycerol, 2 mg/ml bovine serum albumin, and 0.1 mg/ml heparin. Prior to incubation, RNA substrates were annealed by incubation at 95° C. for 2 minutes and then placed directly on ice for 20 minutes in 66 mM NaCl, 6.7 mM MgCl2, and 27 mM Tris (pH 7.5). Protein was then added to the RNA in the presence or absence of the small molecule. The binding reaction was carried out in a 10 μL volume and was incubated for 10 minutes at room temperature before 2-4 μL were loaded on a pre-chilled 4° C. gel. […]
For binding curves, gels were quantified using ImageQuant® software (Molecular Dynamics, Piscataway, N.J.). The percent RNA bound was determined by taking the ratio of RNA-protein complex to total RNA, per lane. […] Binding curves were graphed using KaleidaGraph software (Synergy Software, Reading, Pa.). For the neomycin B and CUG8 gel shift, the apparent Kd was determined using Equation 1, where Y=fraction bound, m0=small molecule concentration, m1=total RNA concentration, and m2=Kd. […]
Pentamidine has been shown previously to bind to other RNAs and DNAs (Zhang et al., RNA 6:937-951, 2000); therefore, we determined pentamidine binding to an endogenous target of MBNL. […]

With `Cc1c2oc3c(C)ccc(C(=O)N[C@@H]4C(=O)N[C@H](C(C)C)C(=O)N5CCC[C@H]5C(=O)N(C)CC(=O)N(C)[C@@H](C(C)C)C(=O)O[C@@H]4C)c3nc-2c(C(=O)N[C@@H]2C(=O)N[C@H](C(C)C)C(=O)N3CCC[C@H]3C(=O)N(C)CC(=O)N(C)[C@@H](C(C)C)C(=O)O[C@@H]2C)c(N)c1=O` [actinomycin D] (I: T[dV]P[Sar][NMeV] / II: T[dV]P[Sar][NMeV]; ester I:1-I:C, II:1-II:C; linker I:N-II:N via Actinocin(9to1)), the “Disruption of the MBNL-CUG interaction” value on MBNL-CUG RNA complex is given as “did not disrupt the MBNL-CUG interaction at any concentration”.
`N=C(N)c1ccc(OCCCCCCCOc2ccc(C(=N)N)cc2)cc1` [heptamidine]: in assay [1], the “Concentration giving complete rescue of cTNT missplicing” value was 25 µM.
For the molecule `NC[C@@H]1O[C@H](O[C@H]2[C@@H](O)[C@H](O[C@@H]3[C@@H](O)[C@H](N)C[C@H](N)[C@H]3O[C@H]3O[C@H](CN)[C@@H](O)[C@H](O)[C@H]3N)O[C@@H]2CO)[C@H](N)[C@@H](O)[C@@H]1O` [neomycin B], the EC50 (usually the midpoint of the concentration-response curve) on MBNL-cTNT interaction is 50 µM; at MBNL-CUG RNA complex (gel shift, short CUG repeat RNA (CUG4), read-out: EC50 for disruption of MBNL binding to CUG repeat construct), 110 µM. In addition, the “Disruption of the MBNL-CUG interaction” value on MBNL-CUG RNA complex was “disrupt the MBNL-CUG interaction at micromolar concentrations”.
`NC[C@@H]1O[C@H](O[C@H]2[C@@H](O)[C@H](O[C@@H]3[C@@H](O)[C@H](N)C[C@H](N)[C@H]3O[C@H]3O[C@H](CO)[C@@H](O)[C@H](O)[C@H]3N)O[C@@H]2CO)[C@H](N)[C@@H](O)[C@@H]1O` [paromomycin]: at MBNL-CUG RNA complex, the “Disruption of the MBNL-CUG interaction” value is “did not disrupt the MBNL-CUG interaction at any concentration”.
`CN1C(=Cc2cc[n+](C)c3ccccc23)Sc2ccccc21` [thiazole orange]: the “Disruption of the MBNL-CUG interaction” value at MBNL-CUG RNA complex is given as “disrupt the MBNL-CUG interaction at micromolar concentrations”.
